Assay [1] concerns Staphylococcus aureus. In words: Antibacterial activity against Staphylococcus aureus MTCC 121 after 7 days by two-fold serial dilution method. The settings on record: MTCC 121, 168 h, time 7 day. The format is functional.
Assay [2] deals with Escherichia coli. Put plainly: Antibacterial activity against Escherichia coli MTCC 40 after 7 days by two-fold serial dilution method. The class given is functional. The conditions noted are these: MTCC 40, 168 h, time 7 day.
In assay [3] the test system is Pseudomonas aeruginosa. Put plainly: Antibacterial activity against Pseudomonas aeruginosa MTCC 2453 after 7 days by two-fold serial dilution method. The format is functional. The conditions noted are these: MTCC 2453, 168 h, time 7 day.
Another assay concerns Bacillus subtilis. Put plainly: Antibacterial activity against Bacillus subtilis […] after 7 days by two-fold serial dilution method. The format is functional. The conditions noted are these: 168 h, time 7 day.
Assay [4] has as its system Enterococcus faecalis. In words: Antibiofilm activity against Enterococcus faecalis. The class given is functional.
The subject of assay [5] is Enterococcus faecalis. Put plainly: Antibacterial activity against Enterococcus faecalis. The format is functional.
The test system of assay [6] is Escherichia coli. Put plainly: Antibacterial activity against Escherichia coli AG102 in presence of ciprofloxacin. The class given is functional.
For assay [7], the system named is Escherichia coli. Put plainly: Antibacterial activity against Escherichia coli AG102. The format is functional.
Assay [8] has as its system Staphylococcus aureus. In words: Antibacterial activity against Staphylococcus aureus ATCC 49444 after 24 hrs by CLSI protocol based cup-plate agar diffusion method. The format is functional. On the technique in general: A growth-free zone around the sample is the usual read-out of agar diffusion tests.
A further assay deals with Listeria monocytogenes. In words: Antibacterial activity against Listeria monocytogenes ATCC 19115 after 24 hrs by CLSI protocol based cup-plate agar diffusion method. The format is functional.
A further assay has as its system Salmonella typhimurium. Put plainly: Antibacterial activity against Salmonella typhimurium ATCC 14028 after 24 hrs by CLSI protocol based cup-plate agar diffusion method. The settings on record: Salmonella enterica. The class given is functional, Salmonella enterica subsp. enterica serovar Typhimurium.
Assay [9] concerns Pseudomonas aeruginosa. In words: Antibacterial activity against Pseudomonas aeruginosa ATCC 27853 after 24 hrs by CLSI protocol based cup-plate agar diffusion method. The class given is functional.
Assay [10] has as its system Staphylococcus aureus. Put plainly: Antibacterial activity against Staphylococcus aureus ATCC 25923 by CLSI protocol based microdilution method. The format is functional, organism-based. Background: Dilution methods test growth across graded concentrations, often in twofold steps.
Assay [11] concerns Staphylococcus aureus. In words: Antibacterial activity against Staphylococcus aureus ATCC 6538 by CLSI protocol based microdilution method. The format is functional, organism-based.

SMILES strings stand for the structures. In brackets after ≈: the same amount, converted by molar mass.

Data on 23 compounds can be found in ChEMBL document CHEMBL4725221, “Thiazoles, Their Benzofused Systems, and Thiazolidinone Derivatives: Versatile and Promising Tools to Combat Antibiotic Resistance” (J Med Chem, 2020).

What is called MIC is the lowest concentration that inhibits growth of the organism. On to `O=C(NN1C(=O)/C(=C/c2ccc(Cl)cc2)SC1c1cccc(Br)c1)c1ccc(-c2ccccc2)cc1` (configuration not stated), for which the MIC in the assay with Staphylococcus aureus [1] was found to be 6.25 µg/mL (≈ 10.9 µM); against Escherichia coli [2], 12.5 µg/mL (≈ 21.7 µM); against Pseudomonas aeruginosa [3], 6.25 µg/mL (≈ 10.9 µM); against Bacillus subtilis it was 6.25 µg/mL (≈ 10.9 µM).

With `O=C(NN1C(=O)/C(=C/c2ccccc2)SC1c1ccccc1)c1ccc(-c2ccccc2)cc1` (configuration not stated), the minimum inhibitory concentration (MIC) in the assay with Staphylococcus aureus [1] was determined as 6.25 µg/mL (≈ 13.5 µM); against Escherichia coli [2], 6.25 µg/mL (≈ 13.5 µM); with Pseudomonas aeruginosa [3], 6.25 µg/mL (≈ 13.5 µM); against Bacillus subtilis, 3.12 µg/mL (≈ 6.74 µM).

As to `c1ccc(-c2nc(-c3cccc(-c4nc(-c5cccc6ccccc56)cs4)c3)cs2)cc1`, the MBIC in the assay on Enterococcus faecalis [4] was 0.004 mg/mL. Further, in the assay on Enterococcus faecalis [5], it took 16 µg/mL (≈ 35.8 µM) to inhibit growth (MIC).

Take `O=C(Nc1ccc(Cc2nc3ccccc3s2)cc1)c1ccccc1`: the MIC stood at 0.016 µg/mL with Escherichia coli [6] and 256 µg/mL (≈ 743 µM) in the assay with Escherichia coli [7].

`COc1ccc(/C=C2\SC(c3cccc(Br)c3)N(NC(=O)c3ccc(-c4ccccc4)cc3)C2=O)cc1` (configuration not stated): the minimal inhibitory concentration (MIC) in the assay on Staphylococcus aureus [1] was 3.12 µg/mL (≈ 5.46 µM); in the assay with Escherichia coli [2], 1.56 µg/mL (≈ 2.73 µM); with Pseudomonas aeruginosa [3], 12.5 µg/mL (≈ 21.9 µM); against Bacillus subtilis, 1.56 µg/mL (≈ 2.73 µM).

Consider `O=C(NN1C(=O)/C(=C/c2cccc([N+](=O)[O-])c2)SC1c1cccc(Br)c1)c1ccc(-c2ccccc2)cc1` (configuration not stated), for which the minimal inhibitory concentration (MIC) against Staphylococcus aureus [1] is 1.56 µg/mL (≈ 2.66 µM); in the assay with Escherichia coli [2], 3.12 µg/mL (≈ 5.32 µM); against Pseudomonas aeruginosa [3] it was 1.56 µg/mL (≈ 2.66 µM); against Bacillus subtilis, 1.56 µg/mL (≈ 2.66 µM).

Consider `CCN(CC)c1ccc(/C=N\n2c(S)nnc2-c2sc(-c3ccccc3)nc2C)cc1`, for which the MIC was found to be 31.2 µg/mL (≈ 69.5 µM) in the assay with Staphylococcus aureus [8], 1.9 µg/mL (≈ 4.24 µM) with Listeria monocytogenes, 62.5 µg/mL (≈ 139 µM) in the assay on Salmonella typhimurium and 1.9 µg/mL (≈ 4.24 µM) in the assay with Pseudomonas aeruginosa [9].

Usually IC50 stands for the concentration needed to halve the response being measured. A higher IC50 goes with weaker potency in that assay. Turning to `COCCn1cc(-c2nc(-c3cn(C)c4ccccc34)cs2)c2cc(OC)ccc21`, the IC50 in the assay with Staphylococcus aureus [10] stood at 1.2 µg/mL (≈ 2.87 µM); in the assay with Staphylococcus aureus [11], 11.5 µg/mL (≈ 27.5 µM).

In the case of `COCCn1cc(-c2nc(-c3cn(C)c4ccccc34)cs2)c2cc(F)ccc21`, the half-maximal inhibitory concentration (IC50) was found to be 0.2 µg/mL (≈ 0.493 µM) in the assay on Staphylococcus aureus [10] and 21 µg/mL (≈ 51.8 µM) in the assay on Staphylococcus aureus [11].

`O=C(NN1C(=O)/C(=C/c2cccc([N+](=O)[O-])c2)SC1c1cccc(F)c1)c1ccc(-c2ccccc2)cc1` (configuration not stated): the MIC against Staphylococcus aureus [1] was 6.25 µg/mL (≈ 11.9 µM); against Escherichia coli [2], 12.5 µg/mL (≈ 23.8 µM); with Pseudomonas aeruginosa [3] it was 3.12 µg/mL (≈ 5.94 µM); against Bacillus subtilis, 6.25 µg/mL (≈ 11.9 µM).

As to `O=C(NN1C(=O)/C(=C/c2ccc(Cl)cc2)SC1c1ccccc1)c1ccc(-c2ccccc2)cc1` (configuration not stated), the MIC in the assay with Staphylococcus aureus [1] came out at 3.12 µg/mL (≈ 6.28 µM); against Escherichia coli [2], 3.12 µg/mL (≈ 6.28 µM); against Pseudomonas aeruginosa [3], 12.5 µg/mL (≈ 25.1 µM); against Bacillus subtilis, 6.25 µg/mL (≈ 12.6 µM).

Turning to `O=C(Cc1ccc(F)cc1)Nc1ccc(-c2nc3ccccc3s2)cc1`, the MIC in the assay with Escherichia coli [6] came out at 0.03 µg/mL; in the assay with Escherichia coli [7], 128 µg/mL (≈ 353 µM).

On to `COCCn1cc(-c2csc(-c3cn(C(=O)OC(C)(C)C)c4ccccc34)n2)c2ccccc21`, for which the IC50 amounted to 1.8 µg/mL (≈ 3.8 µM) with Staphylococcus aureus [10] and 6.9 µg/mL (≈ 14.6 µM) in the assay on Staphylococcus aureus [11].

Regarding `COc1ccc(CC(=O)Nc2ccc(-c3nc4ccccc4s3)cc2)cc1`, the MIC with Escherichia coli [6] stood at 0.008 µg/mL; against Escherichia coli [7], 256 µg/mL (≈ 684 µM).

In the assay with Staphylococcus aureus [10], `COCCn1cc(-c2csc(-c3cn(C)c4ccc(Br)cc34)n2)c2ccccc21` displayed an IC50 of 2.5 µg/mL (≈ 5.36 µM).

As for `O=C(NN1C(=O)/C(=C/c2cccc(Br)c2)SC1c1ccccc1)c1ccc(-c2ccccc2)cc1` (configuration not stated), the MIC came out at 3.12 µg/mL (≈ 5.76 µM) against Staphylococcus aureus [1], 12.5 µg/mL (≈ 23.1 µM) against Escherichia coli [2], 6.25 µg/mL (≈ 11.5 µM) against Pseudomonas aeruginosa [3] and 6.25 µg/mL (≈ 11.5 µM) in the assay on Bacillus subtilis.

In the case of `O=C(CCCCc1ccccc1)Nc1ccc(-c2nc3ccccc3s2)cc1`, the minimum inhibitory concentration (MIC) with Escherichia coli [6] came to 0.004 µg/mL; against Escherichia coli [7], 512 µg/mL (≈ 1320 µM).

Regarding `O=C(NN1C(=O)/C(=C/c2ccccc2)SC1c1cccc(F)c1)c1ccc(-c2ccccc2)cc1` (configuration not stated), the MIC with Staphylococcus aureus [1] came to 6.25 µg/mL (≈ 13 µM); against Escherichia coli [2], 6.25 µg/mL (≈ 13 µM); against Pseudomonas aeruginosa [3] it was 12.5 µg/mL (≈ 26 µM); in the assay on Bacillus subtilis, 3.12 µg/mL (≈ 6.49 µM).

Consider `COCCn1cc(-c2csc(-c3cn(CCOC)c4ccc(Br)cc34)n2)c2ccccc21`, for which the IC50 was 2.9 µg/mL (≈ 5.68 µM) in the assay with Staphylococcus aureus [10] and 18.8 µg/mL (≈ 36.8 µM) in the assay on Staphylococcus aureus [11].

`Cc1nc(-c2ccccc2)sc1-c1nnc(S)n1/N=C\c1ccc(Br)cc1`: the minimal inhibitory concentration (MIC) with Staphylococcus aureus [8] stood at 31.2 µg/mL (≈ 68.4 µM); against Listeria monocytogenes it was 1.9 µg/mL (≈ 4.16 µM); with Salmonella typhimurium it was 62.5 µg/mL (≈ 137 µM); against Pseudomonas aeruginosa [9], 1.9 µg/mL (≈ 4.16 µM).

Consider `O=C(Nc1ccc(-c2nc3ccccc3s2)cc1)c1ccccc1`, for which the MIC with Escherichia coli [6] is 0.03 µg/mL; in the assay with Escherichia coli [7], 256 µg/mL (≈ 775 µM).

`Cc1nc(-c2ccccc2)sc1-c1nnc(S)n1/N=C\c1ccc([N+](=O)[O-])cc1`: the minimal inhibitory concentration (MIC) is 62.5 µg/mL (≈ 148 µM) against Staphylococcus aureus [8], 1.9 µg/mL (≈ 4.5 µM) against Listeria monocytogenes, 62.5 µg/mL (≈ 148 µM) against Salmonella typhimurium and 1.9 µg/mL (≈ 4.5 µM) in the assay with Pseudomonas aeruginosa [9].

Consider `CCc1ccc(C(=O)Nc2ccc(Cc3nc4ccccc4s3)cc2)cc1`, for which the MIC in the assay with Escherichia coli [6] stood at 0.06 µg/mL; in the assay with Escherichia coli [7], 64 µg/mL (≈ 172 µM).
